Experimental data as given in US10533018B2, “Antimicrobial prochelators to target drug-resistant bacteria and methods of making and using the same” (Duke University, priority 2015, dated 2020).

Tests used:
E. coli = format: cell-based
Excerpt: Further evidence for the influence of bioavailable copper on the IC50 of DB4-51 was obtained by using a checkerboard assay. […] Serial dilutions of DB4-51 in LB were arrayed against dilutions of chelator (BCS and EDTA). The antagonism exists between our prochelator, DB4-51, and the strong, extracellular chelators BCS and EDTA. […] However, at lower concentrations, EDTA works antagonistically with DB4-51 by restoring bacterial growth. This trend further underscores the influence that copper and potentially other metals have on the growth inhibitory activity of DB4-51.

several strains = details: concentrations below 1 mM
Excerpt: [39, 40] […] To control for the impact of copper alone, the cultures of 5 bacterial strains were subjected to a serial dilution of CuCl2. […] [41] To control for the impact of limited Cu, several strains were also challenged with a serial dilution of BCS.

Q: What does the source list for `Cc1cc(-c2ccc(S(=O)(=O)O)cc2)c2ccc3c(-c4ccc(S(=O)(=O)O)cc4)cc(C)nc3c2n1` [BCS, bathocuproine disulfonate]?
A: concentration that restored E. coli growth (E. coli; at 52 μM DB4-51): ≥ 125 µM; effect on bacterial growth (several strains): did not inhibit bacterial growth

Q: With `O=C(O)CN(CCN(CC(=O)O)CC(=O)O)CC(=O)O` [EDTA, Ethylenediaminetetraacetic acid] as the compound, how does the “effect on bacterial growth” value (E. coli; high concentrations (>125 μM)) read?
A: The value was “some inhibition of bacterial growth”.
